#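 Test compounds were applied to cells in 96-well plates for 48 hours at 5 doses. GI50: concentration for 50% inhibition of growth.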 Activity calls are given as the source filed them. Cut-off read from the data, not from the text of the source: active = GI50 up to about 1.1 µM and inactive = higher.
# Columns and labels:
# Test in all cases: NCI anticancer screen, dose series, 48 h
# SK-OV-3 = tested on: SK-OV-3
# KM-20L2 = tested on: KM-20L2
# K562 = tested on: K562
# NCI-H23 = tested on: NCI-H23
# SF-295 = tested on: SF-295
# Malme-3M = tested on: Malme-3M
# SN12C = tested on: SN12C
# RXF 393 = tested on: RXF 393
# 786-0 = tested on: 786-0
# HCT-15 = tested on: HCT-15
# UACC-62 = tested on: UACC-62
# RXF 631 = tested on: RXF 631
# XF498 = tested on: XF498
# HCC 2998 = tested on: HCC 2998
# HOP-92 = tested on: HOP-92
# A549 = tested on: A549
# HL-60 = tested on: HL-60
# UO-31 = tested on: UO-31
# LXFL 529 = tested on: LXFL 529
# SNB-75 = tested on: SNB-75
# NCI-H522 = tested on: NCI-H522
# COLO 205 = tested on: COLO 205
# OVCAR-5 = tested on: OVCAR-5
# UACC-257 = tested on: UACC-257
# TK-10 = tested on: TK-10
# KM12 = tested on: KM12
# IGROV-1 = tested on: IGROV-1
# SK-MEL-2 = tested on: SK-MEL-2
# OVCAR-8 = tested on: OVCAR-8
# U-251 = tested on: U-251
# SK-MEL-5 = tested on: SK-MEL-5
# SNB-78 = tested on: SNB-78
# HOP-62 = tested on: HOP-62
# SF-539 = tested on: SF-539
# SK-MEL-28 = tested on: SK-MEL-28
# NCI-H226 = tested on: NCI-H226
# CAKI-1 = tested on: CAKI-1
# MOLT-4 = tested on: MOLT-4
# M14 = tested on: M14
# CCRF-CEM = tested on: CCRF-CEM
# A498 = tested on: A498
# DLD-1 = tested on: DLD-1
# ACHN = tested on: ACHN
# SW-620 = tested on: SW-620
# HT-29 = tested on: HT-29
# RPMI-8226 = tested on: RPMI-8226
# NCI-H460 = tested on: NCI-H460
# SF-268 = tested on: SF-268
# LOX IMVI = tested on: LOX IMVI
# M19-MEL = tested on: M19-MEL
# OVCAR-4 = tested on: OVCAR-4
# EKVX = tested on: EKVX
# OVCAR-3 = tested on: OVCAR-3
# HCT-116 = tested on: HCT-116
# DMS-114 = tested on: DMS-114
# SNB-19 = tested on: SNB-19
# DMS-273 = tested on: DMS-273
# SR = tested on: SR
# HOP-18 = tested on: HOP-18
smiles,measurement,setting,value
O=c1c2cc(Br)ccc2nc(CCl)n1-c1ccc(O)c([N+](=O)[O-])c1,GI50,SK-OV-3,37.8 µM (inactive)
same,GI50,KM-20L2,33 µM (inactive)
same,GI50,K562,22.4 µM (inactive)
same,GI50,NCI-H23,16.7 µM (inactive)
same,GI50,SF-295,16.3 µM (inactive)
same,GI50,Malme-3M,17.5 µM (inactive)
same,GI50,SN12C,18.8 µM (inactive)
same,GI50,RXF 393,12.9 µM (inactive)
same,GI50,786-0,16.1 µM (inactive)
same,GI50,HCT-15,19.7 µM
same,GI50,UACC-62,26.6 µM (inactive)
same,GI50,RXF 631,> 10 µM (inactive)
same,GI50,XF498,15.4 µM (inactive)
same,GI50,HCC 2998,19.9 µM (inactive)
same,GI50,HOP-92,29.2 µM (inactive)
same,GI50,A549,22.4 µM (inactive)
same,GI50,HL-60,23.2 µM (inactive)
same,GI50,UO-31,15.5 µM (inactive)
same,GI50,LXFL 529,20.9 µM (inactive)
same,GI50,SNB-75,20.8 µM (inactive)
same,GI50,NCI-H522,18.8 µM (inactive)
same,GI50,COLO 205,20.3 µM (inactive)
same,GI50,OVCAR-5,63.5 µM (inactive)
same,GI50,UACC-257,19.1 µM (inactive)
same,GI50,TK-10,18.7 µM (inactive)
same,GI50,KM12,19 µM (inactive)
same,GI50,IGROV-1,24 µM (inactive)
same,GI50,SK-MEL-2,16 µM (inactive)
same,GI50,OVCAR-8,19.9 µM (inactive)
same,GI50,U-251,38.9 µM (inactive)
same,GI50,SK-MEL-5,15.9 µM (inactive)
same,GI50,SNB-78,22.9 µM (inactive)
same,GI50,HOP-62,20.9 µM (inactive)
same,GI50,SF-539,19.2 µM (inactive)
same,GI50,SK-MEL-28,17.6 µM (inactive)
same,GI50,NCI-H226,14.5 µM (inactive)
same,GI50,CAKI-1,21.7 µM (inactive)
same,GI50,MOLT-4,23.1 µM (inactive)
same,GI50,M14,22.3 µM (inactive)
same,GI50,CCRF-CEM,22.4 µM (inactive)
same,GI50,A498,20.1 µM (inactive)
same,GI50,DLD-1,17.7 µM (inactive)
same,GI50,ACHN,26.4 µM (inactive)
same,GI50,SW-620,19.2 µM (inactive)
same,GI50,HT-29,27.7 µM (inactive)
same,GI50,RPMI-8226,25 µM (inactive)
same,GI50,NCI-H460,34.1 µM (inactive)
same,GI50,SF-268,20.8 µM (inactive)
same,GI50,LOX IMVI,19 µM (inactive)
same,GI50,M19-MEL,19.8 µM (inactive)
same,GI50,OVCAR-4,18.7 µM (inactive)
same,GI50,EKVX,17.5 µM (inactive)
same,GI50,OVCAR-3,18.2 µM (inactive)
CC(O)/C=C/C(CCC(C)CO)C(C)C (stereo not given),GI50,SK-OV-3,> 100 µM (inactive)
same,GI50,HCT-116,> 100 µM (inactive)
same,GI50,K562,> 100 µM (inactive)
same,GI50,DMS-114,> 100 µM (inactive)
same,GI50,NCI-H23,> 100 µM (inactive)
same,GI50,SF-295,> 100 µM (inactive)
same,GI50,Malme-3M,> 100 µM (inactive)
same,GI50,SN12C,> 100 µM (inactive)
same,GI50,RXF 393,> 100 µM (inactive)
same,GI50,786-0,> 100 µM (inactive)
same,GI50,HCT-15,> 100 µM
same,GI50,UACC-62,> 100 µM (inactive)
same,GI50,RXF 631,> 100 µM (inactive)
same,GI50,XF498,> 100 µM (inactive)
same,GI50,HCC 2998,> 100 µM (inactive)
same,GI50,HOP-92,> 100 µM (inactive)
same,GI50,A549,> 100 µM (inactive)
same,GI50,HL-60,> 100 µM (inactive)
same,GI50,UO-31,> 100 µM (inactive)
same,GI50,LXFL 529,> 100 µM (inactive)
same,GI50,SNB-75,> 100 µM (inactive)
same,GI50,NCI-H522,> 100 µM (inactive)
same,GI50,COLO 205,> 100 µM (inactive)
same,GI50,OVCAR-5,> 100 µM (inactive)
same,GI50,UACC-257,> 100 µM (inactive)
same,GI50,TK-10,> 100 µM (inactive)
same,GI50,KM12,> 100 µM (inactive)
same,GI50,IGROV-1,> 100 µM (inactive)
same,GI50,SK-MEL-2,> 100 µM (inactive)
same,GI50,OVCAR-8,> 100 µM (inactive)
same,GI50,U-251,> 100 µM (inactive)
same,GI50,SK-MEL-5,> 100 µM (inactive)
same,GI50,SNB-19,> 100 µM (inactive)
same,GI50,SNB-78,> 100 µM (inactive)
same,GI50,HOP-62,> 100 µM (inactive)
same,GI50,SF-539,> 100 µM (inactive)
same,GI50,SK-MEL-28,> 100 µM (inactive)
same,GI50,CAKI-1,> 100 µM (inactive)
same,GI50,MOLT-4,> 100 µM (inactive)
same,GI50,M14,> 100 µM (inactive)
same,GI50,CCRF-CEM,> 100 µM (inactive)
same,GI50,A498,> 100 µM (inactive)
same,GI50,DMS-273,> 100 µM (inactive)
same,GI50,DLD-1,> 100 µM (inactive)
same,GI50,ACHN,> 100 µM (inactive)
same,GI50,SW-620,> 100 µM (inactive)
same,GI50,HT-29,> 100 µM (inactive)
same,GI50,RPMI-8226,> 100 µM (inactive)
same,GI50,NCI-H460,> 100 µM (inactive)
same,GI50,SF-268,> 100 µM (inactive)
same,GI50,LOX IMVI,> 100 µM (inactive)
same,GI50,M19-MEL,> 100 µM (inactive)
same,GI50,OVCAR-4,> 100 µM (inactive)
same,GI50,EKVX,> 100 µM (inactive)
same,GI50,OVCAR-3,> 100 µM (inactive)
C=C1CCCC2OC(OC)CCC12 (stereo not given),GI50,SK-OV-3,> 100 µM (inactive)
same,GI50,KM-20L2,> 100 µM (inactive)
same,GI50,HCT-116,> 100 µM (inactive)
same,GI50,K562,> 100 µM (inactive)
same,GI50,DMS-114,> 100 µM (inactive)
same,GI50,NCI-H23,> 100 µM (inactive)
same,GI50,SF-295,> 100 µM (inactive)
same,GI50,Malme-3M,> 100 µM (inactive)
same,GI50,SN12C,> 100 µM (inactive)
same,GI50,RXF 393,> 100 µM (inactive)
same,GI50,786-0,> 100 µM (inactive)
same,GI50,HCT-15,> 100 µM
same,GI50,UACC-62,> 100 µM (inactive)
same,GI50,RXF 631,> 100 µM (inactive)
same,GI50,XF498,> 100 µM (inactive)
same,GI50,HCC 2998,> 100 µM (inactive)
same,GI50,HOP-92,> 100 µM (inactive)
same,GI50,A549,> 100 µM (inactive)
same,GI50,HL-60,> 100 µM (inactive)
same,GI50,UO-31,> 100 µM (inactive)
same,GI50,LXFL 529,> 100 µM (inactive)
same,GI50,SNB-75,> 100 µM (inactive)
same,GI50,NCI-H522,> 100 µM (inactive)
same,GI50,COLO 205,> 100 µM (inactive)
same,GI50,OVCAR-5,> 100 µM (inactive)
same,GI50,UACC-257,> 100 µM (inactive)
same,GI50,TK-10,> 100 µM (inactive)
same,GI50,KM12,> 100 µM (inactive)
same,GI50,IGROV-1,> 100 µM (inactive)
same,GI50,SK-MEL-2,> 100 µM (inactive)
same,GI50,OVCAR-8,> 100 µM (inactive)
same,GI50,U-251,> 100 µM (inactive)
same,GI50,SK-MEL-5,> 100 µM (inactive)
same,GI50,SNB-19,> 100 µM (inactive)
same,GI50,SNB-78,> 100 µM (inactive)
same,GI50,HOP-62,> 100 µM (inactive)
same,GI50,SF-539,> 100 µM (inactive)
same,GI50,NCI-H226,> 100 µM (inactive)
same,GI50,CAKI-1,> 100 µM (inactive)
same,GI50,MOLT-4,> 100 µM (inactive)
same,GI50,M14,> 100 µM (inactive)
same,GI50,CCRF-CEM,> 100 µM (inactive)
same,GI50,A498,> 100 µM (inactive)
same,GI50,DMS-273,> 100 µM (inactive)
same,GI50,DLD-1,> 100 µM (inactive)
same,GI50,SR,> 100 µM (inactive)
same,GI50,ACHN,> 100 µM (inactive)
same,GI50,SW-620,> 100 µM (inactive)
same,GI50,HT-29,> 100 µM (inactive)
same,GI50,RPMI-8226,> 100 µM (inactive)
same,GI50,NCI-H460,> 100 µM (inactive)
same,GI50,SF-268,> 100 µM (inactive)
same,GI50,M19-MEL,> 100 µM (inactive)
same,GI50,OVCAR-4,> 100 µM (inactive)
same,GI50,HOP-18,> 100 µM (inactive)
same,GI50,EKVX,> 100 µM (inactive)
same,GI50,OVCAR-3,> 100 µM (inactive)

# Reference: ChEMBL document CHEMBL1201862, “PubChem BioAssay data set” (2004)
